Key:
PC-3 cells = test: DNA fragmentation assay (DNA ladder, apoptosis); type: cell-based, human
Protocol: Cell apoptosis result in DNA fragmentation can be evaluated by the presence of a DNA ladder visualized when DNA is run on a 1.2% agarose gel. DNA ladder assay (apoptosis assay) was performed following exposure of PC-3 to various concentrations of the polypeptides for 72 hours. The polypeptides that were used in this particular experiment are polypeptide 7-21 (SEQ ID NO: 4), polypeptide PCK3145 (SEQ ID NO: 5) and polypeptide 76-94 (SEQ ID NO: 6). […] This effect was especially evident following treatment with PCK3145 (SEQ ID NO: 5), which is illustrated by FIG. 7. Lane 1 of the gel illustrated in FIG. 7 represents a lambda HindIII digest standard.
Apoptosis of PC-3 cells, following a 72 hours exposure to PCK3145 at 500 μg/ml concentration, was evaluated in supplemented media by DNA fragmentation assay. Doxorubicin was used as a reference positive control. Untreated cells and PCK3145-treated cells were harvested and the DNA was isolated. Isolated DNA was run on a 1.2% agarose gel containing Ethidium Bromide (EtBr). […] Lane 1 of the gel illustrated in FIG. 25 represents the DNA marker (100 base pair DNA ladder). Lane 2 of the gel illustrated in FIG. 25 represents a control of untreated PC-3 cells.

Mat Ly Lu (MLL) tumor [1] = test: Study MLL-1, Mat LyLu tumor implanted in nude mice; type: in vivo; settings: Doxorubicin 5 mg/kg i.v. single bolus on day 3; p=0.006
Protocol: (§1) Studies MLL-1 and MLL-2 were performed as follows; on day 0, male Copenhagen rats were injected subcutaneously with 5×10^5 Mat LyLu cells per rat. These cells were derived from cultures of Mat LyLu cell line grown in RPMI media containing 10% (v/v) of fetal calf serum in logarithmic phase of growth. Cells were harvested from the culture flasks by trypsinization, were centrifuged at 1200 rotation per minute (rpm) and washed three timed with Hanks balanced salt solution (HBSS). Following washing, cells were counted and adjusted to a concentration of 5×10^6 cells/ml in HBSS. A 0.1 ml volume of tumor cell inoculum containing 5×10^5 cells was administered subcutaneously into the flank region of each rat. Three days after tumor cell implantation (i.e., inoculation), animals were treated daily by a subcutaneous injection of the desired polypeptide until day 13.
Experiments illustrated in FIG. 12 show the anti-tumor efficacy validation of rHuPSP94 against Mat LyLu (MLL) tumor implanted in nude mice (Protocol based on S. Garde et al.; The Prostate, 22: 225-233, 1993).
For study MLL-1 (FIG. 12), tumor-implanted nude mice were separated in different groups, each receiving various amount of rHuPSP94 or control reagents. The different groups used in these experiments are illustrated below. Each group contained 8 mice.

Mat Ly Lu (MLL) tumor [2] = test: Study MLL-2, Mat Ly Lu tumor implanted in SCID mice; type: in vivo; settings: Doxorubicin 5 mg/kg i.v. single bolus on day 3; p=0.002
Protocol: as §1
Experiments illustrated in study MLL-2 show the anti-tumor efficacy validation of rHuPSP94 against Mat Ly Lu (MLL) tumor implanted in severe combined immunodeficiency (SCID) mice (Protocol based on S. Garde et al.; The Prostate, 22: 225-233, 1993).
For study MLL-2 (FIG. 13), tumor-implanted Scid mice were separated in different groups each receiving various amounts of rHuPSP94 or control reagents. The different groups used in these experiments are illustrated below. Each group contained 8 mice.

human PC-3 tumor = test: Studies PC3-6 and PC3-12, human PC-3 prostate cancer nude mouse xenograft model; type: in vivo, nude mice; settings: Doxorubicin 10000 μg/kg single bolus i.v. on days 3 and 11 p.t.i
Source text: Studies PC3-6 and PC3-12 (FIGS. 26-27) are consecutive group experiments designed to characterize the in vivo activity of PCK3145 in the human PC-3 prostate cancer nude mouse xenograft model and to explore relationships between dose, route and schedule of administration and the efficacy parameters of tumor growth (volume).
PC-3 cells harvested in mid-log phase were inoculated at 5×10^6 cells per mice via the subcutaneous route in the mice's back area. Tumors grown from this inoculum were excised at approximately day 32 to 35 post-tumor implantation (p.t.i) when tumor volume reached 200-300 mm^3 (i.e., cu mm). The necrotic tissue was removed and the viable tumor mass cut into small pieces (approximately 1 to 3 mm^3) were implanted SC in the flank region at two opposite sites of the mouse. Treatment with various concentrations of PCK3145 was initiated at day 3 post-tumor implantation (p.t.i) and was continued daily for 21 days. Subcutaneous injections were done below tumor growth sites. Intra-peritoneal injections were performed in the abdominal region. Intra-venous injections were performed via the lateral tail vein. The experiment was terminated 24 hours after the last treatment. Tumor measurements were taken at Days 11, 14, 16, 18, 20, 22 and 24 post-tumor implantation (p.t.i). Tumor volumes were calculated according to formula (a×b^2×0.5), where a—is the length of the long diameter, and b—is the width of the perpendicular small diameter.
Study No: PC3-6 illustrates the efficacy of PCK3145, injected subcutaneously, in tumor growth retardation in Nude mice, which have received PC-3 implants. Mice were separated in different group each receiving various amounts of PCK3145 (SEQ ID NO: 5) or control reagents. The different groups used in these experiments are illustrated in table 6 below. Each group contained 10 mice. Doxorubicin was administered as single bolus intra-venous injection on days 3 and 11 post-tumor implantation (p.t.i).
Study No: PC3-12 illustrates the efficacy of PCK3145 in tumor growth retardation in Nude mice, which have received PC-3 implants. Mice were separated in different group each receiving various amounts of PCK3145 (SEQ ID NO: 5) or control reagents. PCK3145 was injected either through intra-venous or intra-peritoneal route. The different groups used in these experiments are illustrated in table 7 below. Each group contained 9 mice.

Dunning Mat Ly Lu tumors = test: Studies MLL-5 and MLL-6, Mat Ly Lu tumor implanted in Copenhagen rats; type: in vivo; settings: Doxorubicin 5000 μg/kg single bolus i.v. on day 3 p.t.i
Protocol: Anti-tumor efficacy evaluation of PCK3145 against Mat Ly Lu (MLL) tumor implanted in Copenhagen rats was performed. (Protocol based on S. Garde et al.; The Prostate, 22: 225-233, 1993). Mat LyLu tumor cells were harvested in mid-log phase from the culture flasks by trypsinization, were centrifuged at 1200 rotation per minute (rpm) and washed three timed with Hanks balanced salt solution (HBSS). Following washing, cells were counted and adjusted to a concentration of 5×10^6 cells/ml in HBSS. A 0.1 ml volume of tumor cell inoculum containing 5×10^5 cells was administered subcutaneously into the flank region of each rat. Treatment started at day 3 post-tumor implantation (p.t.i) by local subcutaneous injection (i.e., in the shaved back area just below tumor implantation site) of various PCK3145 concentrations. This treatment was continued daily for 16 days. Experiments were terminated 24 hours after the last treatment. Tumor measurements were taken at days 7, 9, 11, 14, 16 and 18. Tumor volumes are calculated according to formula (a×b^2×0.5), where a—is the length of the long diameter, b—width of the perpendicular small diameter. At day 19 tumors of individual rats were excised and weighed.
Study No: MLL-5 illustrates the efficacy of PCK3145 (SEQ ID NO: 5) compared with polypeptide 7-21 (SEQ ID NO: 4) and polypeptide 76-94 (SEQ ID NO: 6) in tumor growth retardation in Copenhagen rats, which have received Mat Ly Lu implants. Mice were separated in different groups, each receiving various amount of PCK3145 (SEQ ID NO: 5) or control reagents. PCK3145 was injected through the subcutaneous route. The different groups used in these experiments are illustrated in table 8 below. Each group contained 8 mice.
Study No: MLL-6 illustrates the efficacy of PCK3145 (SEQ ID NO: 5) in tumor growth retardation in Copenhagen rats, which have received Mat Ly Lu implants. Mice were separated in different group each receiving various amounts of PCK3145 (SEQ ID NO: 5) or control reagents. PCK3145 was injected through the subcutaneous route. The different groups used in these experiments are illustrated in table 9 below. Each group contained 8 mice. Doxorubicin was administered as single bolus via intra-venous injection on day 3 p.t.i.

Question: Which “DNA laddering effect (FIG. 25 lane 3)” value (PC-3 cells; 2 μg/ml) does the source give for `COc1cccc2c1C(=O)c1c(O)c3c(c(O)c1C2=O)C[C@@](O)(C(=O)CO)C[C@@H]3O[C@H]1C[C@H](N)[C@H](O)[C@H](C)O1` [Doxorubicin, reference compound] here?
Answer: The value was “DNA laddering effect”.

Question: And the “DNA laddering effect (FIG. 7 lane 2)” value (PC-3 cells; doxorubicin-treated cells)?
Answer: The value was “DNA laddering effect”.

Question: What about the tumor weight reduction (Mat Ly Lu (MLL) tumor [1]) of the same molecule?
Answer: The tumor weight reduction was 48%.

Question: What about the tumor weight reduction (Mat Ly Lu (MLL) tumor [2]) of the same molecule?
Answer: Its tumor weight reduction is 82%.

Question: And the “tumor growth (volume), study PC3-6” value (human PC-3 tumor)?
Answer: Its value is “highly significant anti-tumor therapeutic effect”.

Question: And the “reduction in tumor volumes, study MLL-6” value (Dunning Mat Ly Lu tumors)?
Answer: The value was “over 80%”.

Source: US8551951B2, “Pharmaceutical preparations and methods for inhibiting tumors” (Aenorasis SA Pharmaceuticals and Medical Devices, priority 2000, dated 2013)
